Patent US12692249B2, “WDR5 inhibitors and modulators” (Vanderbilt University, priority 2019, dated 2026)
Read-outs that look alike come from different tables or passages of the source.

Tests used:
WDR5 = WDR5 (Homo sapiens, UniProt P61964); assay: TR-FRET competition binding assay, displacement of 10mer-Thr-FAM MLL peptide probe from His-tagged WDR5; settings: WDR5-His tag (residues 24-334) 2 nM; 10mer-Thr-FAM 150 nM; 60 min, room temperature; read-out: Ki for Inhibition of WDR5 by TR-FRET assay
Description: Time Resolved-Fluorescence Energy Transfer Competition Assay […] Excess 10mer-Thr-FAM probe was utilized with His-tagged WDR5 in conjunction with a commercial anti-His antibody containing a Terbium label. The LanthaScreenTM Elite Tb-anti-HIS Antibody from ThermoFisher Scientific was used for this purpose. […] The 10mer-Thr-FAM probe when bound to WDR5 will undergo a FRET interaction with the Tb-anti-HIS and emit at 520 nm. […] WDR[…] 10[…] used at 150 nM. […] A source plate is prepared using an Echo Liquid Handler, which distributes the compounds to the assay plate (white, flat-bottom; OptiPlate) in a 10-point, 5-fold dilution schemes with a top concentration of 5 μM, in a final volume of 20 μL. […] The final DMSO concentration in each well of the assay plate is 1% or lower. The plate is covered, shielded from light, and incubated for 60 minutes at room temperature with rocking. 10mer-Thr-FAM and Anti-His terbium antibody fluorescence is then measured on a Biotek Cytation 3 at excitation wavelength of 340 nm, and emission wavelengths of 495 nm and 520 nm. […] TR-FRET signal is plotted and IC50 and Ki values are calculated according to the formula of Wang Z. FEBS Lett (1996) 3, 245. Ki=[I]50/([L]50/Kd+[P]0/Kd+1) where [I]50 is the concentration of the free inhibitor at 50% inhibition, [L]50 is the concentration of the free labeled ligand at 50% inhibition, [P]0 is the concentration of the free protein at 0% inhibition, Kd represents the dissociation constant of the FITC-MLL or 10mer-Thr-FAM probe for WDR5. Total fluorescence is also measured, to rule out compounds that are inherently fluorescent or able to act as quenchers in the assay. TR-FRET Binding Assay

[1] = test system: MV4:11 human cancer cell lines; assay: Cellular viability / anti-proliferative assay, CellTiter-Glo, 5 day protocol; format: cell-based; settings: Homo sapiens, MV4-11, 120 h, read-out: GI50 on cellular proliferation of MV4:11 human cancer cell lines
In short: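 Luminescent ATP-based viability (CellTiter-Glo) after a 5-day exposure gave GI50 via sigmoidal fitting, averaged over two or more replicates. Compounds spanned 22 two-fold steps down from 30 μM at 0.3% DMSO, on 200 MV-4-11 cells per well grown in IMDM plus 10% FBS.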

[2] = MV4:11 cells, 5 day incubation, CellTiter-Glo, mean of at least two replicates

Ki (WDR5) [nM]	GI50 [1, 2] [nM]	Structure (SMILES)	GI50 [1] [nM]
< 0.02	59	CCn1cc(-c2cc(Cn3ccnc3)cc3c2CCN(c2cc(C)nc4ccc(OC)cc24)C3=O)c(C(F)(F)F)n1 [Example 53, 7-((1H-Imidazol-1-yl)methyl)-5-(1-ethyl-3-(trifluoromethyl)-1H-pyrazol-4-yl)-2-(6-methoxy-2-methylquinolin-4-yl)-3,4-dihydroisoquinolin-1(2H)-one]	
0.028	71	CCn1cc(-c2cc(Cn3ccnc3)cc3c2CCN(c2cncc4ccc(C)cc24)C3=O)c(C(F)(F)F)n1 [Example 54, 7-((1H-Imidazol-1-yl)methyl)-5-(1-ethyl-3-(trifluoromethyl)-1H-pyrazol-4-yl)-6′-methyl-3,4-dihydro-1H-[2,4′-biisoquinolin]-1-one]	
< 0.02	59	Cc1ccc2cncc(N3CCc4c(cc(Cc5cnc[nH]5)cc4-c4cn(C)nc4C(F)(F)F)C3=O)c2c1 [Example 55, 7-((1H-imidazol-5-yl)methyl)-6′-methyl-5-(1-methyl-3-(trifluoromethyl)-1H-pyrazol-4-yl)-3,4-dihydro-1H-[2,4′-biisoquinolin]-1-one]	
0.031	97	Cc1ccc2cncc(N3CCc4c(cc(Cc5ncc[nH]5)cc4-c4cn(C)nc4C(F)(F)F)C3=O)c2c1 [Example 56, 7-((1H-Imidazol-2-yl)methyl)-6′-methyl-5-(1-methyl-3-(trifluoromethyl)-1H-pyrazol-4-yl)-3,4-dihydro-1H-[2,4′-biisoquinolin]-1-one]	
0.025	191	Cc1ccc2cncc(N3CCc4c(cc(Cc5cn(C)cn5)cc4-c4cn(C)nc4C(F)(F)F)C3=O)c2c1 [Example 58, 6′-Methyl-7-((1-methyl-1H-imidazol-4-yl)methyl)-5-(1-methyl-3-(trifluoromethyl)-1H-pyrazol-4-yl)-3,4-dihydro-1H-[2,4′-biisoquinolin]-1-one]	
0.028	25	Cc1ccc2c(c1)C(N1CCc3c(cc(Cn4ccnc4C)cc3-c3cn(C)nc3C(F)(F)F)C1=O)CCO2 (centres unmarked) [Example 62, 7-((2-Methyl-1H-imidazol-1-yl)methyl)-5-(1-methyl-3-(trifluoromethyl)-1H-pyrazol-4-yl)-2-(6-methylchroman-4-yl)-3,4-dihydroisoquinolin-1(2H)-one]	
< 0.02	< 20	COc1cnc2c(c1)C(N1CCc3c(cc(Cn4ccnc4C)cc3-c3cn(C)nc3C(F)(F)F)C1=O)CCC2 (centres unmarked) [Example 65, 2-(3-Methoxy-5,6,7,8-tetrahydroquinolin-5-yl)-7-((2-methyl-1H-imidazol-1-yl)methyl)-5-(1-methyl-3-(trifluoromethyl)-1H-pyrazol-4-yl)-3,4-dihydroisoquinolin-1(2H)-one]	
0.062	84	COc1ccc2c(c1)C(N1CCc3c(cc(Cn4ccnc4)cc3-c3cn(C)nc3C(F)(F)F)C1=O)CCC2 (centres unmarked) [Example 66, 7-((1H-Imidazol-1-yl)methyl)-2-(7-methoxy-1,2,3,4-tetrahydronaphthalen-1-yl)-5-(1-methyl-3-(trifluoromethyl)-1H-pyrazol-4-yl)-3,4-dihydroisoquinolin-1(2H)-one]	
< 0.02	< 20	COc1cnc2c(c1)[C@@H](N1CCc3c(cc(Cn4ccnc4)cc3-c3cn(C)nc3C(F)(F)F)C1=O)CCC2 [Example 71, (S)-7-((1H-Imidazol-1-yl)methyl)-2-(3-methoxy-5,6,7,8-tetrahydroquinolin-5-yl)-5-(1-methyl-3-(trifluoromethyl)-1H-pyrazol-4-yl)-3,4-dihydroisoquinolin-1(2H)-one]	

The remaining lines, values behind:

Structure (SMILES)	Ki (WDR5) [nM]	GI50 [1, 2] [nM]	GI50 [1] [nM]
Cc1ccc2cncc(N3CCc4c(cc(C(O)c5cn(C)cn5)cc4-c4cn(C)nc4C(F)(F)F)C3=O)c2c1 (centres unmarked) [Example 57, 7-(Hydroxy(1-methyl-1H-imidazol-4-yl)methyl)-6′-methyl-5-(1-methyl-3-(trifluoromethyl)-1H-pyrazol-4-yl)-3,4-dihydro-1H-[2,4′-biisoquinolin]-1-one]	27	29000	
Cc1ccc2cncc(N3CCc4c(cc(Cc5ccncc5)cc4-c4cn(C)nc4C(F)(F)F)C3=O)c2c1 [Example 59, 6′-Methyl-5-(1-methyl-3-(trifluoromethyl)-1H-pyrazol-4-yl)-7-(pyridin-4-ylmethyl)-3,4-dihydro-1H-[2,4′-biisoquinolin]-1-one]	1.4	4380	
Cc1nccn1Cc1cc2c(c(-c3cn(C)nc3C(F)(F)F)c1)CCN(C1CCCc3ccc(Br)cc31)C2=O (centres unmarked) [Example 60]	0.023	38	
Cc1nccn1Cc1cc2c(c(-c3cn(C)nc3C(F)(F)F)c1)CCN(C1CCOc3ccc(Br)cc31)C2=O (centres unmarked) [Example 61, 2-(6-Bromochroman-4-yl)-7-((2-methyl-1H-imidazol-1-yl)methyl)-5-(1-methyl-3-(trifluoromethyl)-1H-pyrazol-4-yl)-3,4-dihydroisoquinolin-1(2H)-one]	0.052	31	
Cc1nccn1Cc1cc2c(c(-c3cn(C)nc3C(F)(F)F)c1)CCN(C1CCOc3ccc(C4CC4)cc31)C2=O (centres unmarked) [Example 63, 2-(6-Cyclopropylchroman-4-yl)-7-((2-methyl-1H-imidazol-1-yl)methyl)-5-(1-methyl-3-(trifluoromethyl)-1H-pyrazol-4-yl)-3,4-dihydroisoquinolin-1(2H)-one]	0.068	87	
Cc1nccn1Cc1cc2c(c(-c3cn(C)nc3C(F)(F)F)c1)CCN(C1CCCc3ncccc31)C2=O (centres unmarked) [Example 64, 7-((2-Methyl-1H-imidazol-1-yl)methyl)-5-(1-methyl-3-(trifluoromethyl)-1H-pyrazol-4-yl)-2-(5,6,7,8-tetrahydroquinolin-5-yl)-3,4-dihydroisoquinolin-1(2H)-one]	0.042	284	
COc1ccc2c(c1)C(N1CCc3c(cc(Cn4ccnc4)cc3-c3cn(C)nc3C(F)(F)F)C1=O)CCO2 (centres unmarked) [Example 67, 7-((1H-Imidazol-1-yl)methyl)-2-(6-methoxychroman-4-yl)-5-(1-methyl-3-(trifluoromethyl)-1H-pyrazol-4-yl)-3,4-dihydroisoquinolin-1(2H)-one]	0.062	35	
COc1cnc2c(c1)[C@@H](N1CCc3c(cc(Cn4ccnc4C)cc3-c3cn(C)nc3C(F)(F)F)C1=O)CCC2 [Example 68, (S)-2-(3-Methoxy-5,6,7,8-tetrahydroquinolin-5-yl)-7-((2-methyl-1H-imidazol-1-yl)methyl)-5-(1-methyl-3-(trifluoromethyl)-1H-pyrazol-4-yl)-3,4-dihydroisoquinolin-1(2H)-one]	< 0.02	< 20	
COc1ccc2c(c1)[C@@H](N1CCc3c(cc(Cn4ccnc4C)cc3-c3cn(C)nc3C(F)(F)F)C1=O)CCO2 [Example 69, (S)-2-(6-Methoxychroman-4-yl)-7-((2-methyl-1H-imidazol-1-yl)methyl)-5-(1-methyl-3-(trifluoromethyl)-1H-pyrazol-4-yl)-3,4-dihydroisoquinolin-1(2H)-one]	< 0.02	< 20	
COc1ccc2c(c1)[C@@H](N1CCc3c(cc(Cn4ccnc4)cc3-c3cn(C)nc3C(F)(F)F)C1=O)CCO2 [Example 70, (S)-7-((1H-Imidazol-1-yl)methyl)-2-(6-methoxychroman-4-yl)-5-(1-methyl-3-(trifluoromethyl)-1H-pyrazol-4-yl)-3,4-dihydroisoquinolin-1(2H)-one]	< 0.02	< 20	
Cn1cc(-c2cc(Cn3ccnc3)cc3c2CCN([C@H]2CCOc4ncc(Cl)cc42)C3=O)c(C(F)(F)F)n1 [Example 72]	< 0.02		< 20
CN1CC[C@H](N2CCc3c(cc(Cn4ccnc4)cc3-c3cn(C)nc3C(F)(F)F)C2=O)c2cc(Cl)cnc21 [Example 73, (S)-7-((1H-Imidazol-1-yl)methyl)-2-(6-chloro-1-methyl-1,2,3,4-tetrahydro-1,8-naphthyridin-4-yl)-5-(1-methyl-3-(trifluoromethyl)-1H-pyrazol-4-yl)-3,4-dihydroisoquinolin-1(2H)-one]	< 0.02		< 20
CCn1cc(-c2cc(Cn3ccnc3C)cc3c2CCN([C@H]2CCOc4ccc(OC)cc42)C3=O)c(C(F)(F)F)n1 [Example 74, (S)-5-(1-Ethyl-3-(trifluoromethyl)-1H-pyrazol-4-yl)-2-(6-methoxychroman-4-yl)-7-((2-methyl-1H-imidazol-1-yl)methyl)-3,4-dihydroisoquinolin-1(2H)-one]	< 0.02		20
